pEC50: −log10 of the molar value.

For eight molecules, CC50 and EC50 results are on record in patent US11142527B2, “Dihydropyrimidine compounds and uses thereof in medicine” (SUNSHINE LAKE PHARMA CO., LTD., priority 2017, dated 2021).

Tested on in one series: not listed separately
Description: Cytotoxicity test with CellTiter Glo. It counts as cell-based. The conditions noted are these: human, HepG2.2.15 cells, highest concentration 150 μM, read-out: CC50 values of the compounds of the invention. Here is the method:
Test 2: Cytotoxicity and Selectivity Index
Methods of Testing Cytotoxicity and Selectivity Index
The serial diluted compound was added to a 384 wells plate at 50 μL HepG2.2.15 cell per well (3000 cells per well), the highest final concentration in the experiment is 150 μM (200 fold dilution). The plate was cultured at 37° C. in an incubator with CO2 for 4 days, and cytotoxicity of the compound was detected using CellTiter Glo agent.
The cytotoxicity of the compound was calculated using the following formulate, cytotoxicity (%)=100−(detection value/mean of DMSO control wells values×100) CC50 values were calculated by a four parametric nonlinear regression model using Graphpad Prism 5 software to manage concentration−cytotoxicity (%).
For orientation: In ATP-based viability assays light output follows the ATP content of the culture.
As a reminder, the CC50 is the concentration giving 50% cytotoxicity. Turning to `COC(=O)C1=C(CN2CCN3C(=O)N(c4ccc(Oc5ccc(C(=O)N6CCOC[C@@H]6CCC(=O)O)cc5)cc4)C[C@@H]3C2)NC(c2nccs2)=N[C@H]1c1ccc(F)cc1Cl` [Example 73, 3-((S)-4-(4-(4-((S)-7-(((R)-6-(2-chloro-4-fluorophenyl)-5-(methoxycarbonyl)-2-(thiazol-2-yl)-3,6-dihydropyrimidin-4-yl)methyl)-3-oxohexahydroimidazo[1,5-a]pyrazin-2(3H)-yl)phenoxy)benzoyl)morpholin-3-yl)propanoic acid], the CC50 at 4 days was > 150000 nM. As to `COC(=O)C1=C(CN2CCN3C(=O)N(c4cncc(Oc5ccc(C(=O)O)cc5F)c4)C[C@@H]3C2)NC(c2nccs2)=N[C@H]1c1ccc(F)cc1Cl` [Example 81, 4-((5-((S)-7-(((R)-6-(2-chloro-4-fluorophenyl)-5-(methoxycarbonyl)-2-(thiazol-2-yl)-3,6-dihydropyrimidin-4-yl)methyl)-3-oxohexahydroimidazo[1,5-a]pyrazin-2(3H)-yl)pyridin-3-yl)oxy)-3-fluorobenzoic acid], the CC50 at 4 days is > 150000 nM. The same measure, in the same setting: in the case of `COC(=O)C1=C(CN2CCN3C(=O)N(c4ccc(Oc5ccc(OCC(F)(F)F)cc5)cc4)C[C@@H]3C2)NC(c2nccs2)=N[C@H]1c1ccc(F)cc1Cl` [Example 104, (R)-methyl 4-(2-chloro-4-fluorophenyl)-6-(((S)-3-oxo-2-(4-(4-(2,2,2-trifluoroethoxy)phenoxy)phenyl)hexahydroimidazo[1,5-a]pyrazin-7(1H)-yl)methyl)-2-(thiazol-2-yl)-1,4-dihydropyrimidine-5-carboxylate] it was > 150000 nM.

The next series relates to HBV. Description: Test of anti HBV activity in vitro (viral DNA by qPCR). It counts as cell-based. Particulars: Hepatitis B virus; HepG2.2.15 cells, viral DNA in cell culture supernatant by qPCR; read-out: EC50 values of the compound of the invention on viral replication. The protocol:
Test 1: Test Method of Calculating Anti HBV EC50
HBV Cell Line and Culture Conditions
HepG2.2.15 (SELLS, PNAS, 1987 and SELLS, JV, 1988) chromosomes have an integrated complete HBV genome, and stably express viral RNA and viral protein. HepG2.2.15 cells can secrete mature HBV particles, HBsAg and HBeAg, to medium. HepG2.2.15 cells were cultured in DMEM containing 10% fetal bovine serum, 100 U/mL penicillin, 100 U/mL streptomycin, 1% non essential amino acid, 1 mM sodium pyruvate and 300 μg/mL G418.
Viral particles DNA secreted from HepG2.2.15 cells can be quantified by qPCR, and the effect of the compound on viral replication can be detected.
Test of Anti HBV Activity In Vitro
8000 HepG 2.2.15 cells per well were seeded into a 96-well plate, the plate was cultured at 37° C. and 5% CO2 for 3 days till the cells grew to full wells. Old liquid medium can be removed and replaced with new medium (200 μL) on day 0.
Formulating the compound and treating the cells in the experiment of anti virus: the compound was dissolved in DMSO to a concentration of 30 mM, and then the compound solution was diluted with DMSO to a concentration of 800 μM, and then eight dilutions at 4 fold were performed, the highest concentration is 800 μM. The serial diluted compound was added to the above plate at 1 μL per well, the highest final concentration in the experiment is 4 μM (200 fold dilution). TDF (tenofovir dipiroxil fumarate, Selleck, Cat S1400) has a highest concentration of 4 μM as a positive control. 1 μL of DMSO was added in to the […] at a final concentration of 0.5%, TDF was added in to the […] at a final concentration of 1 μM.
Detection of Viral Genomic DNA by aPCR
Primer: HBV-For-202, […]; HBV-Rev-315, […]. Copies of virus can be calculated using a standard curve plotted by using plasmid containing HBV genome and using SYBR Premix Ex Taq II—Takara DRR081S kit and 1 μL cell culture supernatant as a template. EC50 values of the compound on viral replication were calculated by a four parametric nonlinear regression model using Graphpad Prism 5 software to manage concentration—viral copy number.
For orientation: pEC50 means the negative decadic logarithm of the EC50, by convention in mol/L. Consider `COC(=O)C1=C(CN2CCN3C(=O)N(c4ccc(-c5ccc(C(=O)O)cc5F)cc4)C[C@@H]3C2)NC(c2nccs2)=N[C@H]1c1ccc(F)cc1Cl` [Example 115, 4′-((S)-7-(((R)-6-(2-chloro-4-fluorophenyl)-5-(methoxycarbonyl)-2-(thiazol-2-yl)-3,6-dihydropyrimidin-4-yl)methyl)-3-oxohexahydroimidazo[1,5-a]pyrazin-2(3H)-yl)-2-fluoro-[1,1′-biphenyl]-4-carboxylic acid], for which the pEC50 is 7.76.

As for `COC(=O)C1=C(CN2CCN3C(=O)N(c4ccc(C5(C(=O)O)CCCC5)cc4)C[C@@H]3C2)NC(c2nccs2)=N[C@H]1c1ccc(F)cc1Cl` [Example 29, 1-(4-((S)-7-(((R)-6-(2-chloro-4-fluorophenyl)-5-(methoxycarbonyl)-2-(thiazol-2-yl)-3,6-dihydroprimidin-4-yl)methyl)-3-oxohexahydroimidazo[1,5-a]pyrazin-2(3H)-yl)phenyl) cyclopentane carboxylic acid], the pEC50 was 8.22. For the molecule `COC(=O)C1=C(CN2CCN3C(=O)N(c4ccc(N5CCC(C(=O)O)CC5)cc4)C[C@@H]3C2)NC(c2nccs2)=N[C@H]1c1ccc(F)cc1Cl` [Example 21, 1-(4-((S)-7-(((R)-6-(2-chloro-4-fluorophenyl)-5-(methoxycarbonyl)-2-(thiazol-2-yl)-3,6-dihydropyrimidin-4-yl)methyl)-3-oxohexahydroimidazo[1,5-a]pyrazin-2(3H)-yl)phenyl) piperidine-4-carboxylic acid], the pEC50 is 8.30.

For the molecule `COC(=O)C1=C(CN2CCN3C(=O)N(c4cc(F)cc(Oc5ccc(C(=O)O)cc5F)c4)C[C@@H]3C2)NC(c2nccs2)=N[C@H]1c1ccc(F)cc1Cl` [Example 13, 4-(3-((S)-7-(((R)-6-(2-chloro-4-fluorophenyl)-5-(methoxycarbonyl)-2-(thiazol-2-yl)-3,6-dihydropyrimidin-4-yl)methyl)-3-oxohexahydroimidazo[1,5-a]pyrazin-2(3H)-yl)-5-fluorophenoxy)-3-fluorobenzoic acid], the pEC50 was 7.66.

`COC(=O)C1=C(CN2CCN3C(=O)N(c4ccc(C5(C(=O)O)CC5)cc4)C[C@@H]3C2)NC(c2nccs2)=N[C@H]1c1ccc(F)cc1Cl` [Example 27, 1-(4-((S)-7-(((R)-6-(2-chloro-4-fluorophenyl)-5-(methoxycarbonyl)-2-(thiazol-2-yl)-3,6-dihydropyrimidin-4-yl)methyl)-3-oxohexahydroimidazo[1,5-a]pyrazin-2(3H)-yl)phenyl)cyclopropane carboxylic acid]: the pEC50 was 8.00.
